The values below come from patent US9198923B2, “Phosphate management with small molecules” (OPKO IRELAND GLOBAL HOLDINGS, LTD., priority 2009, dated 2015).

Series [1] concerns Caco-2 human epithelial cells. As to the kind of experiment: Caco-2 cell viability by ALAMAR BLUE stain reduction. The class given is cell-based. Conditions: 100 μM compound, Caco-2 cells; FIG. 3; taken as nontoxic. The protocol:
Staining was performed with ALAMAR BLUE stain in the presence of 100 μM C-002, C-004, C-012, and C-028 cells to exclude compound toxicity in the phosphorus transport assay. Caco-2 cells were plated into a 96-well plate in concentrations which gave about 16,000 cells/well on the day of the test (e.g., 8000 cells/well for a 1 day growth, 4000 cells/well for a 2 day growth, 2000 cell/well for a 3 day growth). On the day of the test, old media was replaced by 80 μL of fresh media per well with either a 100 μM final concentration of the small molecule having a phosphate group in DMSO, or with 1% of DMSO in the control wells. Testing was performed in duplicate. ALAMAR BLUE stain (BioSource International, Inc., Cat#DAL1100) was added at a final concentration of 10% into each well according to manufacturer instructions. The cells were then incubated at 37° C. for another 18 or 24 hours, and the reduction of ALAMAR BLUE stain by vital cells was measured spectrophotometrically at 570 nm and 600 nm. The results were calculated as the percent of reduction using the formula in the manufacturer's manual (TREK Diagnostic Systems, PI-DIAL 1025/1100 Rev 1.0).

Series [2] concerns Male Sprague Dawley rats. As to the kind of experiment: Maximum tolerated dose (MTD) in male Sprague Dawley rats. In kind it is in vivo, rat. The note with it: oral, daily, 0.5, 5 and 10 mg per kg for twelve days; for effect on weight gain: FIG. 5. The protocol:
Male Sprague Dawley rats were given C-002, C-004, C-012, C-021, C-022, C-023, and C-028 orally and daily at doses of 0.5, 5 and 10 mg per kg for twelve days. The mortality and animal weight data were recorded.

Series [3] has as its system phosphate uptake in Caco-2 human intestinal epithelial cells. Kind of series: Dosage effect on phosphate uptake inhibition in Caco-2 cells. The class given is cell-based. Conditions: concentrations from 1 to 100 μM, FIG. 2. Here is the method:
Caco-2 cells were cultured in DMEM medium containing 20% Fetal Bovine Serum. Medium from the sub-confluent monolayer of Caco-2 cells was removed. The resulting cells were washed with either a sodium free buffer (137 mM choline chloride, 5.4 mM KCl, 2.8 mM CaCl2, 1.2 mM MgSO4, and 14 mM Tris-HCl at pH 7.4), or with a buffer that contained sodium (137 mM sodium chloride, 5.4 mM KCl, 2.8 mM CaCl2, 1.2 mM MgSO4, and 14 mM Tris-HCl at pH 7.4). After the wash, sodium or sodium free buffer comprising 1 μM of radiolabeled phosphate (K2H^32PO4,1 μCi/mL) and 100 μM of a small molecule having a phosphate group that was selected from the group containing Compounds 001-029 was added to the cells and they were incubated for 20 min at 37° C. Phosphate uptake was terminated by removing the uptake media and washing the cells with an ice-cold solution of 14 mM Tris-HCl, pH 7.4 that contained 137 mM of either choline chloride or sodium chloride. The monolayers of the cells were solubilized by the addition of a 1% solution of Triton X-100 to extract the radiolabeled phosphate. Aliquots of the radiolabeled phosphate were added to scintillation fluid and the radioactivity was determined by liquid scintillation counting. The difference between the assays using the two solutions with or without sodium represents the sodium dependent transport of phosphate.
The procedure of example 1 was repeated using C-002, C-004, C-012, and C-028 at concentrations from 1 to 100 μM. The results were recorded as the percent of phosphate uptake inhibition versus concentration of the small molecule having a phosphate group.

Series [4] relates to Caco-2 human epithelial cells. Kind of series: Caco-2 cell viability by trypan blue exclusion. Conditions: 100 μM compound, one hour of incubation, sodium or sodium free buffer; FIG. 4. The class given is cell-based. Here is the method:
Trypan blue exclusion was used to determine the effect of C-002, 004, 012, and 028 on cell viability. The cells were plated in the same way as the ALAMAR BLUE stain test (see above). On the day of the test, media was removed, cells were washed with PBS and incubated with 100 μM (final concentration) of C-002, C-004, C-012 and C-028 in either a sodium free buffer (137 mM choline chloride, 5.4 mM KCl, 2.8 mM CaCl2, 1.2 mM MgSO4, and 14 mM Tris-HCl at pH 7.4), or with a buffer that contained sodium (137 mM sodium chloride, 5.4 mM KCl, 2.8 mM CaCl2, 1.2 mM MgSO4, and 14 mM Tris-HCl at pH 7.4). Testing was performed in duplicate. After 1 hour of incubation the cells were detached with trypsin/EDTA, transferred to an Eppendorf tube, and their viability was counted using 0.4% trypan blue stain (Invitrogen, Cat.#15250-061) in a 1:4 dilution with confocal microscopy.

The structures appear in SMILES notation.

With `O=P(O)(O)c1c(Cl)c(Cl)nc(Cl)c1Cl` [C-002], the “percent difference in ALAMAR BLUE stain reduction after 18 and 24 hours” value in series [1] was “virtually unchanged”. Further, in series [2], the mortality entry is recorded as “No death” and the “effect on weight gain” value is given as “no significant effect”. In series [3], the “percent inhibition of phosphate uptake versus concentration” value (shortened to “percent inhibition”) is “increased with the concentration”. In addition, in series [4], the “viability of Caco-2 cells by trypan blue exclusion” value (“viability of Caco-2 cells” below) is recorded as “no significant effect”.

With `C=C(c1ccccc1)P(=O)(O)O` [C-004], the “percent difference in ALAMAR BLUE stain reduction after 18 and 24 hours” value in series [1] is listed as “virtually unchanged”. In series [2], the mortality entry is recorded as “No death” and the “effect on weight gain” value is on record as “no significant effect”. Besides, in series [3], the “percent inhibition” value was “increased with the concentration”. Also, the “viability of Caco-2 cells” value in series [4] is reported as “no significant effect”.

Consider `Cc1csc(Nc2ccc([N+](=O)[O-])cc2)[n+]1CCC(O)(P(=O)(O)O)P(=O)(O)O` [C-012], for which the “percent difference in ALAMAR BLUE stain reduction after 18 and 24 hours” value in series [1] was “virtually unchanged”. In addition, in series [2], the mortality result is “No death” and the “effect on weight gain” value is recorded as “no significant effect”. Besides, the “percent inhibition” value in series [3] was “increased with the concentration”. Besides, the “viability of Caco-2 cells” value in series [4] is recorded as “no significant effect”.

As to `O=P(O)(O)c1ccccc1OCCCl` [C-021], in series [2], the mortality result is on record as “No death” and the “effect on weight gain” value is listed as “no significant effect”.

As for `O=P(O)(O)c1ccccc1OCCCOc1ccccc1P(=O)(O)O` [C-022], in series [2], the mortality result was “No death” and the “effect on weight gain” value is “no significant effect”.

On to `O=P(O)(O)/C=C/c1ccccc1` [C-023], for which, in series [2], the mortality result is listed as “No death” and the “effect on weight gain” value is listed as “no significant effect”.

With `O=P(O)(OC(c1ccccc1)C(F)(F)C(F)(F)C(F)(F)F)c1ccccc1` (centres unmarked) [C-028], in series [1], the “percent difference in ALAMAR BLUE stain reduction after 18 and 24 hours” value was “virtually unchanged”. Further, in series [2], the mortality result was “No death” and the “effect on weight gain” value is “no significant effect”. Also, the “percent inhibition” value in series [3] was “increased with the concentration”. The “viability of Caco-2 cells” value in series [4] was “no significant effect”.
